This note sets out measurements from ChEMBL document CHEMBL4342436, “Artemisia: a promising plant for the treatment of cancer” (Bioorg Med Chem, 2020).

Test [1] has as its system HL-60. Nature of the test: Cytotoxicity against human HL60 cells. The test is classed as functional, cell-based.
Test [2] can be described thus: Cytotoxicity against human 95-D cells by SRB assay. The format is functional, cell-based.
The test system of test [3] is K562. Briefly: Cytotoxicity against human K562 cells. The format is functional, cell-based.
The test system of test [4] is K562. Nature of the test: Antiproliferative activity against human K562 cells assessed as cell viability at 75 uM after 48 hrs relative to control. The format is functional. To be noted: K562, 48 h, read-out: Activity.
For test [5], the system named is K562. Briefly: Cytotoxicity against human K562 cells assessed as cell viability at 75 uM after by MTT assay relative to control. The format is functional. To be noted: read-out: Activity. For orientation: Tetrazolium assays rely on reduction of a dye to a coloured formazan, in cell work by metabolically active cells.
Test [6] is described as follows: Cytotoxicity against mouse Meth-A cells by MTT assay. The format is functional. To be noted: read-out: ED50 (the source's name).
The test system of test [7] is A549. Briefly: Cytotoxicity against human A549 cells after 72 hrs by MTT assay. The format is functional, cell-based. To be noted: A549, 72 h.
Test [8] has as its system HCT-8. Nature of the test: Cytotoxicity against human HCT8 cells after 72 hrs by MTT assay. The test is classed as functional, cell-based. To be noted: HCT-8, 72 h.
Test [9] deals with BGC-823. Briefly: Cytotoxicity against human BGC823 cells after 72 hrs by MTT assay. The format is functional, cell-based. To be noted: BGC-823, 72 h.
In test [10] the test system is NCI-H23. Briefly: Antitumour activity against human NCI-H23 cells xenografted in nude mouse assessed as inhibition of tumour growth at 50 mg/kg, ip for 17 days relative to control. To be noted: 408 h, read-out: TGI. The test is classed as functional.
Test [11] has as its system SW-620. Briefly: Antitumour activity against human SW620 cells xenografted in nude mouse assessed as inhibition of tumour growth at 50 mg/kg, ip for 17 days relative to control. The format is functional. To be noted: SW-620, ip, 408 h, read-out: TGI. On the technique in general: A xenograft is tissue or cells of one species grown in another, often human tumour cells in immunodeficient mice.

Test [12] concerns SMMC-7721. Briefly: Cytotoxicity against human SMMC7721 cells by MTT assay. The format is functional, cell-based.
In test [13] the test system is SGC-7901. Briefly: Cytotoxicity against human SGC7901 cells by MTT assay. The test is classed as functional, cell-based.
Test [14] has as its system BGC-823. Briefly: Cytotoxicity against human BGC823 cells. The test is classed as functional, cell-based.
In test [15] the test system is HCT-8. Nature of the test: Cytotoxicity against human HCT8 cells. The test is classed as functional, cell-based.
In test [16] the test system is A549. Briefly: Cytotoxicity against human A549 cells. The format is functional, cell-based.
Test [17] concerns A549. Nature of the test: Cytotoxicity against human A549 cells assessed as reduction in cell viability by CCK8 assay. The test is classed as functional, cell-based.
The subject of test [18] is HepG2. Briefly: Cytotoxicity against human HepG2 cells assessed as reduction in cell viability by CCK8 assay. The format is functional, cell-based.
Test [19] relates to MG-63. Briefly: Antitumour activity against human MG63 cells xenografted in nude BALB/c mouse assessed as tumour weight at […], ip for 5 days co-treated with allicin. The format is functional.
Test [20] deals with H22. Briefly: Antitumour activity against mouse H22 cells transplanted in mouse assessed as tumour growth inhibition at 300 mg/kg after 7 days relative to control. To be noted: H22, 168 h, read-out: TGI. The format is functional.
The test system of test [21] is PANC-1. Briefly: Antitumour activity against human PANC1 cells xenografted in ip dosed nude BALB/c mouse assessed as tumor weight for 18 days. The format is functional.
Test [22] concerns HGC-27. Briefly: Cytotoxicity against human HGC27 assessed as cell viability at 160 mg/l after 48 hrs by MTT assay relative to control. To be noted: HGC-27, 48 h, read-out: Activity. The test is classed as functional.
Test [23] deals with MG-63. Briefly: Cytotoxicity against human MG63 cells assessed as cell viability after 48 hrs in presence of allicin by MTT assay relative to control. The test is classed as functional.
The subject of test [24] is PANC-1. Briefly: Cytotoxicity against human PANC1 cells assessed as cell viability after 24 hrs by MTT assay relative to control. The test is classed as functional.
In test [25] the test system is CFPAC-1. Briefly: Antitumour activity against human CFPAC-1 cells xenografted in ip dosed nude BALB/c mouse assessed as tumor weight for 18 days. The test is classed as functional.
Test [26] has as its system U2OS. Briefly: Cytotoxicity against human U2OS cells assessed as cell viability after 48 hrs in presence of allicin by MTT assay relative to control. The test is classed as functional.
Test [27] concerns MGC-803. Nature of the test: Cytotoxicity against human MGC803 assessed as cell viability at 160 mg/l after 48 hrs by MTT assay relative to control. The test is classed as functional. To be noted: MGC-803, 48 h, read-out: Activity.
Test [28] relates to BGC-823. Briefly: Cytotoxicity against human BGC823 assessed as cell viability at 160 mg/l after 48 hrs by MTT assay relative to control. The test is classed as functional. To be noted: BGC-823, 48 h, read-out: Activity.
Test [29] concerns Lymphocyte. Briefly: Cytotoxicity against human lymphocytes. The test is classed as cell-based.
Test [30] relates to Y79. Nature of the test: Induction of cell death in human Y79 cells by propidium iodide staining based flow cytometric analysis relative to control. The format is functional.
Test [31] concerns CFPAC-1. Nature of the test: Cytotoxicity against human CFPAC-1 cells assessed as cell viability after 24 hrs by MTT assay relative to control. The format is functional.
The subject of test [32] is HCT-116. Briefly: Growth inhibition of human HCT116 cells assessed as reduction in cell viability at 15 uM by MTT assay relative to control. The format is functional. To be noted: read-out: GI.
Test [33] has as its system IGROV-1. Briefly: Growth inhibition of human IGROV1 cells assessed as reduction in cell viability at 15 uM by MTT assay relative to control. To be noted: read-out: GI. The format is functional.
For test [34], the system named is OVCAR-3. Nature of the test: Growth inhibition of human OVCAR3 cells assessed as reduction in cell viability at 15 uM by MTT assay relative to control. The test is classed as functional. To be noted: read-out: GI.
For test [35], the system named is A-431. Briefly: Cytotoxicity against human A431 cells assessed as reduction in cell viability incubated for 24 hrs by MTT assay. The test is classed as functional, cell-based. To be noted: A-431, 24 h.
The subject of test [36] is MIA PaCa-2. Briefly: Antiproliferative activity against human MIAPaCa2 cells assessed as reduction in cell viability after 48 hrs by MTT assay. The test is classed as functional, cell-based. To be noted: MIA PaCa-2, 48 h.
For test [37], the system named is MCF7. Briefly: Antiproliferative activity against human MCF7 cells assessed as reduction in cell viability after 48 hrs by MTT assay. The test is classed as functional, cell-based. To be noted: MCF7, 48 h.
Test [38] relates to A549. Nature of the test: Antiproliferative activity against human A549 cells assessed as reduction in cell viability after 48 hrs by MTT assay. The test is classed as functional, cell-based. To be noted: A549, 48 h.
The subject of test [39] is B16-F10. Briefly: Cytotoxicity against mouse B16F10 cells assessed as reduction in cell viability incubated for 24 hrs by MTT assay. To be noted: B16-F10, 24 h. The test is classed as functional, cell-based.
Test [40] deals with COLO 205. Nature of the test: Antiproliferative activity against human COLO205 cells assessed as reduction in cell viability after 48 hrs by MTT assay. The test is classed as functional, cell-based. To be noted: COLO 205, 48 h.
For test [41], the system named is BHY. Nature of the test: Antiproliferative activity against human BHY cells assessed as reduction in cell viability after 48 hrs by MTT assay. The format is functional, cell-based.

In brackets after ≈: the same amount, converted by molar mass. Bounds are passed on as bounds.

Broadly, the IC50 is the concentration at which inhibition is half-maximal. `C=C1CCC(O)C2(C)CCC3C(C)C(=O)OC3C12O` (stereo unspecified): the IC50 came to 71.1 µM in test [1], 11.3 µM in [2] and 22.5 µM in test [3].

With `C[C@@H]1C(=O)O[C@H]2C1CC[C@@]1(C)[C@H](O)CC[C@@]13C[C@]2(O)OO3` (stereo partly specified), the viability at 75 µM in test [4] and in [5] was 40% in each case.

For `CC(C)C(=O)CC[C@@H](C)[C@H]1CC[C@@]2(C)[C@@H]3CC[C@H]4C(C)(C)[C@@H](O)CC[C@@]45C[C@@]35CC[C@]12C`, in test [6], the EC50 lay within 4 to 10 µg/mL (≈ 9.03 to 22.6 µM).

With `CC#CC#CC1=C(CCCCO)C(O)C(O)C1=O` (stereo unspecified), the IC50 in test [7] was 7.5 µM; in [8], 4.6 µM; in [9], 1.1 µM.

For `C=C1C(=O)O[C@@H]2[C@@H]3[C@@]4(C=C[C@@]3(C)[C@@]3(C4)C(=O)O[C@@H]4[C@H]5C(C)=CC(=O)C5=C(C)C[C@H](OC(=O)/C(C)=C\C)[C@H]43)[C@](C)(O)CC[C@@H]12`, the figures for the inhibition in vivo at 50 mg/kg in test [10] and in test [11] were 30.3% and 39.5%, respectively.

Consider `CC1=CC2O[C@@H]3C[C@H]4OC(=O)/C=C\CC[C@]56OCCC7(OC7C(=O)OC[C@@]2(CC1)[C@]4(C)[C@]31CO1)[C@H]5OC(=O)[C@H]6O` (stereo partly specified), for which the IC50 in test [12] stood at 10.54 µg/mL (≈ 18.9 µM); in test [13], 0.26 µg/mL (≈ 0.465 µM).

For `CC(=O)OCC1=C2CC[C@@]3(C)[C@H](O)CC(OC(C)=O)=C(C)[C@@H]3[C@H]2OC1=O`, the IC50 in test [14] was 2.71 µM; in test [15] it was 3.76 µM; in [16], 5.49 µM.

As for `C=C1C(=O)O[C@@H]2[C@@H]3C4(C=C[C@@]3(C)[C@]3(C4)C(=O)O[C@@H]4[C@H]5C(C)=CC(=O)C5=C(C)C[C@H](OC(C)=O)[C@H]43)[C@@](C)(OC(C)=O)CC[C@@H]12`, the IC50 in test [17] and in test [18] was 0.6 to 5.4 µM in each case.

Regarding `C[C@H]1[C@H](OC(=O)CCC(=O)O)O[C@@H]2O[C@@]3(C)CC[C@H]4[C@H](C)CC[C@@H]1[C@@]24OO3` [ARTESUNATE], the Activity in test [19] is recorded as below 0.5 g; in [21], below 0.4 g; in [23], below 25%; in test [24] it was below 10%; in [25] it was below 0.4 g; in [26], below 25%. In addition, the Activity in test [30] was 80%; in test [31], below 10%. In addition, the inhibition in vivo at 300 mg/kg in test [20] is 49.1%. Besides, the viability at 160 µg/mL in [22], in [27] and in [28] was below 20% throughout. Moreover, the IC50 in [29] is 80 µM.

`COc1cc2oc(-c3ccc(O)c(O)c3)cc(=O)c2c(O)c1OC` [CIRSILIOL]: the values for the inhibition of growth at 15 µM in test [32], in test [33] and in test [34] were 40.9%, 48.8% and 53.7%, respectively.

With `C=C1C(=O)O[C@H]2[C@H]1CCC(C)=C1C[C@H]3O[C@@]3(C)[C@@H]12` [LUDARTIN], the IC50 is 19 µM in test [35]; 25.2 to 88.1 µM in test [36]; 25.2 to 88.1 µM in test [37]; 25.2 to 88.1 µM in test [38]; 6.6 µM in [39]; 25.2 to 88.1 µM in test [40]. Moreover, in [41], the IC50 lay in the range of 25.2 to 88.1 µM.
